Assay results taken from patent publication US9149038B2, “4-amino-6-(heterocyclic)picolinates and 6-amino-2-(heterocyclic)pyrimidine-4-carboxylates and their use as herbicides” (Dow AgroSciences LLC, priority 2013, dated 2015).
Where two headings read alike, the source gives them in different places.

Test system: Wheat and Barley and weed species
Assay: Post-Emergent Test III: postemergent herbicidal activity in wheat and barley, visual rating after 21 d and probit GR20/GR50/GR80/GR90 (Tables 9-13)
Format: in vivo
Conditions: for Visual Growth Reduction (%) 21 Days After Application BRSNW: winter, canola; for pest or weed control at 17.5 g/ha / pest or weed control at 35 g/ha / pest or weed control at 70 g/ha: post-emergence, 504 h
Procedure, shortened: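 Greenhouse plants (~18/17 °C, 14 h photoperiod) at second–third true leaf stage sprayed at 187 L/ha with a high rate and ½× to 1/16× serial dilutions. Visual injury 0–100% versus solvent-blank controls scored at 21 d; GR20, GR50, GR80 and GR90 derived by probit analysis across rates.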

Nc1c(F)c(-c2ccc3c(c2)OC(F)(F)O3)nc(C(=O)O)c1Cl [Compound 7]
GR50 ALOMY (ALOMY black-grass (Alopecurus myosuroides), growth reduction of 50%, probit analysis): 16 g ai/ha
GR80 ALOMY (ALOMY black-grass (Alopecurus myosuroides), growth reduction of 80%, probit analysis): 25 g ai/ha
GR90 ALOMY (ALOMY black-grass (Alopecurus myosuroides), growth reduction of 90%, probit analysis): 34 g ai/ha
GR50 APESV (APESV bentgrass (Apera spica-venti), growth reduction of 50%, probit analysis): 30 g ai/ha
GR80 APESV (APESV bentgrass (Apera spica-venti), growth reduction of 80%, probit analysis): 114 g ai/ha
GR90 APESV (APESV bentgrass (Apera spica-venti), growth reduction of 90%, probit analysis): >140 g ai/ha
Visual Growth Reduction (%) 21 Days After Application BROTE (BROTE downy brome (Bromus tectorum), 17.5 g ai/ha): E (45-59)
Visual Growth Reduction (%) 21 Days After Application BROTE (BROTE downy brome (Bromus tectorum), 35 g ai/ha): D (60-74)
Visual Growth Reduction (%) 21 Days After Application BROTE (BROTE downy brome (Bromus tectorum), 70 g ai/ha): A (95-100)
GR50 BROTE (BROTE downy brome (Bromus tectorum), growth reduction of 50%, probit analysis): 15 g ai/ha
GR80 BROTE (BROTE downy brome (Bromus tectorum), growth reduction of 80%, probit analysis): 37 g ai/ha
GR90 BROTE (BROTE downy brome (Bromus tectorum), growth reduction of 90%, probit analysis): 59 g ai/ha
GR10 BRSNW (BRSNW oil seed rape, winter (Brassica napus), GR10, probit analysis): 0.5 g ai/ha
GR20 BRSNW (BRSNW oil seed rape, winter (Brassica napus), growth reduction of 20%, probit analysis): 1 g ai/ha
GR50 BRSNW (BRSNW oil seed rape, winter (Brassica napus), growth reduction of 50%, probit analysis): 5 g ai/ha
GR80 BRSNW (BRSNW oil seed rape, winter (Brassica napus), growth reduction of 80%, probit analysis): 24 g ai/ha
GR90 BRSNW (BRSNW oil seed rape, winter (Brassica napus), growth reduction of 90%, probit analysis): 53 g ai/ha
Visual Growth Reduction (%) 21 Days After Application BRSNW (BRSNW oil seed rape, winter (Brassica napus), 17.5 g ai/ha): D (60-74)
Visual Growth Reduction (%) 21 Days After Application BRSNW (BRSNW oil seed rape, winter (Brassica napus), 35 g ai/ha): C (75-84)
Visual Growth Reduction (%) 21 Days After Application BRSNW (BRSNW oil seed rape, winter (Brassica napus), 70 g ai/ha): A (95-100)
Visual Growth Reduction (%) 21 Days After Application GALAP (GALAP cleavers (Galium aparine), 17.5 g ai/ha): E (45-59)
Visual Growth Reduction (%) 21 Days After Application GALAP (GALAP cleavers (Galium aparine), 35 g ai/ha): D (60-74)
Visual Growth Reduction (%) 21 Days After Application GALAP (GALAP cleavers (Galium aparine), 70 g ai/ha): A (95-100)
GR50 GALAP (GALAP cleavers (Galium aparine), growth reduction of 50%, probit analysis): 12 g ai/ha
GR80 GALAP (GALAP cleavers (Galium aparine), growth reduction of 80%, probit analysis): 31 g ai/ha
GR90 GALAP (GALAP cleavers (Galium aparine), growth reduction of 90%, probit analysis): 52 g ai/ha
GR10 HORVS (HORVS barley, spring (crop), GR10, probit analysis): 1 g ai/ha
GR20 HORVS (HORVS barley, spring (crop), growth reduction of 20%, probit analysis): 2 g ai/ha
pest or weed control at 17.5 g/ha (Hordeum vulgare, HORVS barley, spring (crop), 17.5 g ai/ha, read-out: Visual Growth Reduction (%) 21 Days After Application HORVS): 75 to 84%
pest or weed control at 35 g/ha (Hordeum vulgare, HORVS barley, spring (crop), 35 g ai/ha, read-out: Visual Growth Reduction (%) 21 Days After Application HORVS): 85 to 94%
pest or weed control at 70 g/ha (Hordeum vulgare, HORVS barley, spring (crop), 70 g ai/ha, read-out: Visual Growth Reduction (%) 21 Days After Application HORVS): 85 to 94%
Visual Growth Reduction (%) 21 Days After Application LAMPU (LAMPU purple deadnettle (Lamium purpureum), 17.5 g ai/ha): C (75-84)
Visual Growth Reduction (%) 21 Days After Application LAMPU (LAMPU purple deadnettle (Lamium purpureum), 35 g ai/ha): B (85-94)
Visual Growth Reduction (%) 21 Days After Application LAMPU (LAMPU purple deadnettle (Lamium purpureum), 70 g ai/ha): A (95-100)
GR50 LAMPU (LAMPU purple deadnettle (Lamium purpureum), growth reduction of 50%, probit analysis): 3 g ai/ha
GR80 LAMPU (LAMPU purple deadnettle (Lamium purpureum), growth reduction of 80%, probit analysis): 12 g ai/ha
GR90 LAMPU (LAMPU purple deadnettle (Lamium purpureum), growth reduction of 90%, probit analysis): 27 g ai/ha
GR50 LOLSS (LOLSS ryegrass, growth reduction of 50%, probit analysis): >140 g ai/ha
GR80 LOLSS (LOLSS ryegrass, growth reduction of 80%, probit analysis): >140 g ai/ha
GR90 LOLSS (LOLSS ryegrass, growth reduction of 90%, probit analysis): >140 g ai/ha
Visual Growth Reduction (%) 21 Days After Application PHAMI (PHAMI lesser canary grass (Phalaris minor), 17.5 g ai/ha): C (75-84)
Visual Growth Reduction (%) 21 Days After Application PHAMI (PHAMI lesser canary grass (Phalaris minor), 35 g ai/ha): B (85-94)
Visual Growth Reduction (%) 21 Days After Application PHAMI (PHAMI lesser canary grass (Phalaris minor), 70 g ai/ha): A (95-100)
GR50 PHAMI (PHAMI lesser canary grass (Phalaris minor), growth reduction of 50%, probit analysis): 10 g ai/ha
GR80 PHAMI (PHAMI lesser canary grass (Phalaris minor), growth reduction of 80%, probit analysis): 24 g ai/ha
GR90 PHAMI (PHAMI lesser canary grass (Phalaris minor), growth reduction of 90%, probit analysis): 39 g ai/ha
GR50 SETVI (SETVI green foxtail (Setaria viridis), growth reduction of 50%, probit analysis): 6 g ai/ha
GR80 SETVI (SETVI green foxtail (Setaria viridis), growth reduction of 80%, probit analysis): 13 g ai/ha
GR90 SETVI (SETVI green foxtail (Setaria viridis), growth reduction of 90%, probit analysis): 21 g ai/ha
Visual Growth Reduction (%) 21 Days After Application SINAR (SINAR wild mustard (Sinapis arvensis), 17.5 g ai/ha): C (75-84)
Visual Growth Reduction (%) 21 Days After Application SINAR (SINAR wild mustard (Sinapis arvensis), 35 g ai/ha): B (85-94)
Visual Growth Reduction (%) 21 Days After Application SINAR (SINAR wild mustard (Sinapis arvensis), 70 g ai/ha): A (95-100)
GR50 SINAR (SINAR wild mustard (Sinapis arvensis), growth reduction of 50%, probit analysis): 3 g ai/ha
GR80 SINAR (SINAR wild mustard (Sinapis arvensis), growth reduction of 80%, probit analysis): 15 g ai/ha
GR90 SINAR (SINAR wild mustard (Sinapis arvensis), growth reduction of 90%, probit analysis): 36 g ai/ha
GR10 TRZAS (TRZAS wheat, spring (crop), GR10, probit analysis): 2 g ai/ha
GR20 TRZAS (TRZAS wheat, spring (crop), growth reduction of 20%, probit analysis): 3 g ai/ha
pest or weed control at 17.5 g/ha (Triticum aestivum, TRZAS wheat, spring (crop), 17.5 g ai/ha, read-out: Visual Growth Reduction (%) 21 Days After Application TRZAS): 75 to 84%
pest or weed control at 35 g/ha (Triticum aestivum, TRZAS wheat, spring (crop), 35 g ai/ha, read-out: Visual Growth Reduction (%) 21 Days After Application TRZAS): 85 to 94%
pest or weed control at 70 g/ha (Triticum aestivum, TRZAS wheat, spring (crop), 70 g ai/ha, read-out: Visual Growth Reduction (%) 21 Days After Application TRZAS): 85 to 94%
pest or weed control at 17.5 g/ha (ALOMY black-grass (Alopecurus myosuroides), 17.5 g ai/ha, read-out: Visual Growth Reduction (%) 21 Days After Application ALOMY): 45 to 59%
pest or weed control at 35 g/ha (ALOMY black-grass (Alopecurus myosuroides), 35 g ai/ha, read-out: Visual Growth Reduction (%) 21 Days After Application ALOMY): 85 to 94%
pest or weed control at 70 g/ha (ALOMY black-grass (Alopecurus myosuroides), 70 g ai/ha, read-out: Visual Growth Reduction (%) 21 Days After Application ALOMY): 95 to 100%
pest or weed control at 17.5 g/ha (APESV bentgrass (Apera spica-venti), 17.5 g ai/ha, read-out: Visual Growth Reduction (%) 21 Days After Application APESV): 45 to 59%
pest or weed control at 35 g/ha (APESV bentgrass (Apera spica-venti), 35 g ai/ha, read-out: Visual Growth Reduction (%) 21 Days After Application APESV): 60 to 74%
pest or weed control at 70 g/ha (APESV bentgrass (Apera spica-venti), 70 g ai/ha, read-out: Visual Growth Reduction (%) 21 Days After Application APESV): 75 to 84%
pest or weed control at 17.5 g/ha (LOLSS ryegrass, 17.5 g ai/ha, read-out: Visual Growth Reduction (%) 21 Days After Application LOLSS): 30 to 44%
pest or weed control at 35 g/ha (LOLSS ryegrass, 35 g ai/ha, read-out: Visual Growth Reduction (%) 21 Days After Application LOLSS): 45 to 59%
pest or weed control at 70 g/ha (LOLSS ryegrass, 70 g ai/ha, read-out: Visual Growth Reduction (%) 21 Days After Application LOLSS): 60 to 74%
pest or weed control at 17.5 g/ha (SETVI green foxtail (Setaria viridis), 17.5 g ai/ha, read-out: Visual Growth Reduction (%) 21 Days After Application SETVI): 60 to 74%
pest or weed control at 35 g/ha (SETVI green foxtail (Setaria viridis), 35 g ai/ha, read-out: Visual Growth Reduction (%) 21 Days After Application SETVI): 75 to 84%
pest or weed control at 70 g/ha (SETVI green foxtail (Setaria viridis), 70 g ai/ha, read-out: Visual Growth Reduction (%) 21 Days After Application SETVI): 85 to 94%
